Results from ChEMBL document CHEMBL5291721, “A preclinical secondary pharmacology resource illuminates target-adverse drug reaction associations of marketed drugs” (Nat Commun, 2023).

Legend:
Histamine H3 receptor = Histamine H3 receptor (Homo sapiens, UniProt Q9Y5N1)
Progesterone receptor = target: T1, Progesterone receptor (Homo sapiens, UniProt P06401)
T1 sequence (P06401 whole entry): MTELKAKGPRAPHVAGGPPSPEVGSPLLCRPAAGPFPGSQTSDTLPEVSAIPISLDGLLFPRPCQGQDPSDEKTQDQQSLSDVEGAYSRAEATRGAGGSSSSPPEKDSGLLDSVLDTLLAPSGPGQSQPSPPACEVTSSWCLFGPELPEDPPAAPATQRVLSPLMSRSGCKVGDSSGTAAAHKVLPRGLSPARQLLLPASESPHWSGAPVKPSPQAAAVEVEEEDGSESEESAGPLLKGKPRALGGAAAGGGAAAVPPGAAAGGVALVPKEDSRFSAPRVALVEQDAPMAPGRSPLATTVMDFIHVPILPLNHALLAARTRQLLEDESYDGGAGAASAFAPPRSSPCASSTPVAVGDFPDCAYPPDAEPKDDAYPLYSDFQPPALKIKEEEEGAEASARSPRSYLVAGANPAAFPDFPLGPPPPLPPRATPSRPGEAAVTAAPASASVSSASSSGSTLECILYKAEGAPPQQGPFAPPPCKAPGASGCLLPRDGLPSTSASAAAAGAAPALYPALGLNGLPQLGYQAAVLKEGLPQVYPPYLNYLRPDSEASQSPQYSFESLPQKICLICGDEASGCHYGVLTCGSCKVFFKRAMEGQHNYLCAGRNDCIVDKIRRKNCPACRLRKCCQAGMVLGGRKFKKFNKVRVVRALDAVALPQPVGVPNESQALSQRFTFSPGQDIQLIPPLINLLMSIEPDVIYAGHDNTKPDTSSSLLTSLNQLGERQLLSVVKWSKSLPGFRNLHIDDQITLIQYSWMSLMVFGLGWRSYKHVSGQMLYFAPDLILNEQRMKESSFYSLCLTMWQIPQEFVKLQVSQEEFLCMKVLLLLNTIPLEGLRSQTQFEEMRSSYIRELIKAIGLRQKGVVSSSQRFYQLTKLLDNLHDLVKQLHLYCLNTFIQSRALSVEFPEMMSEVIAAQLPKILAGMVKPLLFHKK

[1] = target: T2, 5-hydroxytryptamine receptor 1A (Homo sapiens, UniProt P08908)
T2 sequence (P08908 whole entry): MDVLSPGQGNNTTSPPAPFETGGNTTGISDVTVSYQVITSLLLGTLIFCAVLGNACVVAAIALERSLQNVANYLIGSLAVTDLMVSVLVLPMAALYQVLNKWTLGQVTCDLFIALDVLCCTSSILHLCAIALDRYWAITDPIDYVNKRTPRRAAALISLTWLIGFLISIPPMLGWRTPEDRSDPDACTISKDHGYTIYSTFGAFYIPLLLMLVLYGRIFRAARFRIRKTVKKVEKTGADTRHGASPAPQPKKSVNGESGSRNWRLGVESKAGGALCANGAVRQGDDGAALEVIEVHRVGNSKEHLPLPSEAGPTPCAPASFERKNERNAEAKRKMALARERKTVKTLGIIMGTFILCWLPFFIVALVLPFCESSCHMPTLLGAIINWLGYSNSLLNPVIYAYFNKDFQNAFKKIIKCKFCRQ

[2] = target: Sodium-dependent dopamine transporter (Homo sapiens, UniProt Q01959)
Sodium-dependent dopamine transporter, sequence (Q01959 whole entry): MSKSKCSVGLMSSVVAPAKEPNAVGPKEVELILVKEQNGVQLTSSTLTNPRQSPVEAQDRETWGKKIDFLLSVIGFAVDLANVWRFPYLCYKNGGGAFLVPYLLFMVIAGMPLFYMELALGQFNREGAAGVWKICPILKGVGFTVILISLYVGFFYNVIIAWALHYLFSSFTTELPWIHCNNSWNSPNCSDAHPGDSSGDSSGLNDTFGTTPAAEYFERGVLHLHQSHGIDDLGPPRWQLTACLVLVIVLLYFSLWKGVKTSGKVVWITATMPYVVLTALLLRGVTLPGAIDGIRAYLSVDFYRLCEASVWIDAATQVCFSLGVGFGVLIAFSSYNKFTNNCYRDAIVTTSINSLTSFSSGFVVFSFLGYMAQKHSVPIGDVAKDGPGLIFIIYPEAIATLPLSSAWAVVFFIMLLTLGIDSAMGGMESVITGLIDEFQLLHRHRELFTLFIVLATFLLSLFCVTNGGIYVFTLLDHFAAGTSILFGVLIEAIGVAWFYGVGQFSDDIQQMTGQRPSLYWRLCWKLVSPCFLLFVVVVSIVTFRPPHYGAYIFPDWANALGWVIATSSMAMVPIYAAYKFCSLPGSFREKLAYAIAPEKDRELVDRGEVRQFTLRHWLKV

[3] = target: T3, Gamma-aminobutyric acid receptor subunit alpha-1 (Rattus norvegicus, UniProt P62813)
T3 sequence (P62813 whole entry): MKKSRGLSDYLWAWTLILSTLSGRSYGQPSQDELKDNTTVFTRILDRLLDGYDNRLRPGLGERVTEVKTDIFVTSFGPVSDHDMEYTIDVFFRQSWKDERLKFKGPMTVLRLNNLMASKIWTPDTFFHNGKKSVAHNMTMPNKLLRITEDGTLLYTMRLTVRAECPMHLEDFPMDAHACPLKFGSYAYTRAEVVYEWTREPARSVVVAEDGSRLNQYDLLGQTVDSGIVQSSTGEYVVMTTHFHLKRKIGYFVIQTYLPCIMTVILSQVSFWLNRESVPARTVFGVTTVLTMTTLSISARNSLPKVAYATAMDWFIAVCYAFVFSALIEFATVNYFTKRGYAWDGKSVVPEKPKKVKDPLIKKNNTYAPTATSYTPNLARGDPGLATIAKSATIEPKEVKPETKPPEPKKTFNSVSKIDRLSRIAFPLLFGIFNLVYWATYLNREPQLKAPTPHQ

[4] = target: T4, Alpha-1A adrenergic receptor (Homo sapiens, UniProt P35348); assay type: functional, cell-based
T4 sequence (P35348 whole entry): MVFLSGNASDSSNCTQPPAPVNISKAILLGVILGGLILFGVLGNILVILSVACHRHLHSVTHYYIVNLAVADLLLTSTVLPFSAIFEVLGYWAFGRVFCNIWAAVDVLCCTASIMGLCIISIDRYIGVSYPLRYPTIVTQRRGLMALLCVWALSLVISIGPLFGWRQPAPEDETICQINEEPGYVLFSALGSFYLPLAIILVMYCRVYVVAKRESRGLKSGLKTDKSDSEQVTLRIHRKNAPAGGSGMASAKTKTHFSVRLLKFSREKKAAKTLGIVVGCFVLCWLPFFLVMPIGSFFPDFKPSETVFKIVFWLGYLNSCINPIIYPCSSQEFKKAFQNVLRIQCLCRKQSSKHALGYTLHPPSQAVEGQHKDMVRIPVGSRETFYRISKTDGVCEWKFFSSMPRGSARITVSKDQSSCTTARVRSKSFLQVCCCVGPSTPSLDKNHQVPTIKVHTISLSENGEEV

[5] = target: T3, Gamma-aminobutyric acid receptor subunit alpha-1; assay type: functional
[6] = target: T5, Alpha-2A adrenergic receptor (Homo sapiens, UniProt P08913); assay type: functional, cell-based
T5 sequence (P08913 whole entry): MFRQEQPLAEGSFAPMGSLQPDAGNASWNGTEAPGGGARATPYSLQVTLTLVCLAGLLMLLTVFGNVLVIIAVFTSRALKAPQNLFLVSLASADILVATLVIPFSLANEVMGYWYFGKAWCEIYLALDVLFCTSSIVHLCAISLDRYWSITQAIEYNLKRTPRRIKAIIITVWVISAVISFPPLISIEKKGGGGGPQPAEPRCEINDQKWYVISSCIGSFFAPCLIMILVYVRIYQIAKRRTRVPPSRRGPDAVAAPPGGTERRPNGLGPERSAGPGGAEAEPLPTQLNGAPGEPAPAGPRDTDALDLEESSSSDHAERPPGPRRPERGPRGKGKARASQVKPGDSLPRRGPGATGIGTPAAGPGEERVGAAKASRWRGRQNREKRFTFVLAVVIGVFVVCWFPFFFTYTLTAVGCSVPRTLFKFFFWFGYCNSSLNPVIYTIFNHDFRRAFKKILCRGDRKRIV

[7] = target: 5-hydroxytryptamine receptor 2B (Homo sapiens, UniProt P41595); assay type: functional, cell-based
5-hydroxytryptamine receptor 2B, sequence (P41595 whole entry): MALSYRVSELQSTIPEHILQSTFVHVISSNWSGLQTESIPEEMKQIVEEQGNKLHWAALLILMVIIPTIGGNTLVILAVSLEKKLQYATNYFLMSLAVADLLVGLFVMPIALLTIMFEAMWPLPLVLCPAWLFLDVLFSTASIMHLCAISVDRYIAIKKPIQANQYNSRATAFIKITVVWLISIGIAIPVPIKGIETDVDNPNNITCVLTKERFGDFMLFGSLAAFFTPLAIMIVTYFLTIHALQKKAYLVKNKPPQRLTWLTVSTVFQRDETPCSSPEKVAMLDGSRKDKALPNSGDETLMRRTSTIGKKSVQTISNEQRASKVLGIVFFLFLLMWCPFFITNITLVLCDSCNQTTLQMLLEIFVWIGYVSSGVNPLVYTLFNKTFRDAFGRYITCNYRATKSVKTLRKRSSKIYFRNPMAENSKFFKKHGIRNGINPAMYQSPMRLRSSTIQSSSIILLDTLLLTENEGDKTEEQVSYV
Note: assay procedure not described here.

Histamine H3 receptor, sequence (Q9Y5N1 whole entry): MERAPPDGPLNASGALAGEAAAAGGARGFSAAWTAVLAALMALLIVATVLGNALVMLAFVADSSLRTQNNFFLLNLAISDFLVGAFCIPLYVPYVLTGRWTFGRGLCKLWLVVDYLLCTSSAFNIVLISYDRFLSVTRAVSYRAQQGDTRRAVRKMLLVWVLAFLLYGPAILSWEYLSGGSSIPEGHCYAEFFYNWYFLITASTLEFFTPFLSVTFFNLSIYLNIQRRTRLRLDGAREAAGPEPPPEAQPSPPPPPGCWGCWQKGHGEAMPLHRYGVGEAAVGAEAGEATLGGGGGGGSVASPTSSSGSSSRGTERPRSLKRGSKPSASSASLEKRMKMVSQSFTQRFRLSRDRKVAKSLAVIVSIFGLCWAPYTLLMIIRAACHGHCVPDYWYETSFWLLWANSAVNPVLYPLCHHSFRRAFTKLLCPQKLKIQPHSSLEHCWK

SMILES	AC50 (Histamine H3 receptor)	AC50 (Progesterone receptor)	AC50 [1]	AC50 [2]	AC50 [3]	AC50 [4]	AC50 [5]	AC50 [6]	AC50 [7]
c1ccc2c(c1)CCc1ccccc1N2C1CN2CCC1CC2 (stereo not given) [QUINUPRAMINE]	> 30 µM	> 30 µM	23.3 µM	2.62 µM					
CC[C@@H]([C@H](C)O)n1ncn(-c2ccc(N3CCN(c4ccc(OC[C@@H]5CO[C@@](Cn6cncn6)(c6ccc(F)cc6F)C5)cc4)CC3)cc2)c1=O [POSACONAZOLE]	> 30 µM	> 30 µM	> 30 µM	> 30 µM					
C=CCSCC1Nc2cc(Cl)c(S(N)(=O)=O)cc2S(=O)(=O)N1 (stereo not given) [ALTHIAZIDE]	> 30 µM	> 30 µM	> 30 µM	> 30 µM					
Oc1ccc2c(c1)CC[C@H](c1ccccc1)[C@@H]2c1ccc(OCCN2CCCC2)cc1 [LASOFOXIFENE]					> 30 µM	12 µM	> 30 µM		
CN(C)CCOC(c1ccccc1)c1ccc(Br)cc1 (stereo not given) [BROMODIPHENHYDRAMINE]	> 30 µM	> 30 µM	22.2 µM	0.757 µM					
NC(=O)OCC(O)COc1ccc(Cl)cc1 (stereo not given) [CHLORPHENESIN CARBAMATE]	> 30 µM	> 30 µM	> 30 µM	> 30 µM					
Cc1ccccc1N1CCN(CCc2nnc3n2CCCC3)CC1 [DAPIPRAZOLE]	> 30 µM	> 30 µM	0.628 µM	> 30 µM					
CN(C)CCCNc1c2ccccc2nc2cccc([N+](=O)[O-])c12 [NITRACRINE]					> 30 µM	6.7 µM	18 µM	> 30 µM	> 30 µM
CC(=O)O[C@]1(C(C)=O)CC[C@H]2[C@@H]3C=C(Cl)C4=CC(=O)CC[C@]4(C)[C@H]3CC[C@@]21C [CHLORMADINONE ACETATE]	> 30 µM	0.003 µM	> 30 µM	> 30 µM					
Cc1c(N(C)CS(=O)(=O)O)c(=O)n(-c2ccccc2)n1C [METAMIZOLE]	> 30 µM	> 30 µM	> 30 µM	> 30 µM					
CCC(=O)O[C@]1(C(=O)CCl)[C@@H](C)C[C@H]2[C@@H]3C[C@H](F)C4=CC(=O)C=C[C@]4(C)[C@@]3(F)[C@@H](O)C[C@@]21C [HALOBETASOL PROPIONATE]	> 30 µM	0.003 µM	> 30 µM	> 30 µM					
Cc1ncc(COP(=O)(O)O)c(C=O)c1O [PYRIDOXAL PHOSPHATE ANHYDROUS]	> 30 µM	> 30 µM	> 30 µM	> 30 µM					
CC(N)Cc1ccc(O)cc1 (stereo not given) [HYDROXYAMPHETAMINE]	> 30 µM	> 30 µM	> 30 µM	> 30 µM					
CC(C)N(CCNC(=O)CN1CCCC1=O)C(C)C	> 30 µM	> 30 µM	> 30 µM	> 30 µM					
CC1=CCC(C(C)(C)O)CC1O (stereo not given) [SOBREROL]	> 30 µM	> 30 µM	> 30 µM	> 30 µM					
NCC(CC(=O)O)c1ccccc1 (stereo not given) [PHENIBUT]	> 30 µM	> 30 µM	> 30 µM	> 30 µM					
CC(C(=O)O)c1ccc(CC2CCCC2=O)cc1 (stereo not given) [LOXOPROFEN]					> 30 µM	> 30 µM	> 30 µM	> 30 µM	> 30 µM

SMILES	AC50 (Histamine H3 receptor)	AC50 (Progesterone receptor)	AC50 [1]	AC50 [2]	AC50 [3]	AC50 [4]	AC50 [5]	AC50 [6]	AC50 [7]
C=C1CC[C@H](O)C/C1=C/C=C1\CCC[C@]2(C)[C@@H]([C@H](C)/C=C/[C@H](C)C(C)C)CC[C@@H]12 [ERGOCALCIFEROL]	> 30 µM	> 30 µM	> 30 µM	> 30 µM					
Cc1cc(C(C)(C)C)cc(C)c1CC1=NCCN1 [XYLOMETAZOLINE]					> 30 µM		> 30 µM	0.0616 µM	1.16 µM
COc1cc(N2CCC(N3CCN(C)CC3)CC2)ccc1Nc1ncc(Cl)c(Nc2ccccc2P(C)(C)=O)n1 [BRIGATINIB]	2.53 µM	> 30 µM	> 30 µM	> 30 µM					
COC(=O)c1ccc(O)cc1 [METHYLPARABEN]	> 30 µM	> 30 µM	> 30 µM	> 30 µM					
O=C(O)c1cn(C2CC2)c2cc(N3CCNCC3)c(F)cc2c1=O [CIPROFLOXACIN]		> 30 µM							
Cc1cc(N)c2ccccc2[n+]1CCCCCCCCCC[n+]1c(C)cc(N)c2ccccc21	0.0813 µM	16 µM	2.53 µM	0.89 µM					
CC(C)(C)NC[C@H](O)COc1cccc2c1CCCC2=O [LEVOBUNOLOL]	> 30 µM	> 30 µM	0.886 µM	> 30 µM					
CN1C(=O)/C(=N\NC(N)=S)c2ccccc21 [METHISAZONE]	> 30 µM	> 30 µM	> 30 µM	> 30 µM					
CCN(CCCc1ccccc1)CCCc1ccccc1 [ALVERINE]	> 30 µM	> 30 µM	0.029 µM	0.481 µM					
COc1cc2c(cc1OC)CC(=O)N(CCCN(C)C[C@H]1Cc3cc(OC)c(OC)cc31)CC2 [IVABRADINE]	> 30 µM	> 30 µM	5.81 µM	> 30 µM					
Cc1cnc(C(=O)NCCc2ccc(S(=O)(=O)NC(=O)NC3CCCCC3)cc2)cn1 [GLIPIZIDE]	> 30 µM	> 30 µM	29.9 µM					> 10 µM	
CCN(CC)C(=S)S [DITIOCARB]	> 30 µM	> 30 µM	> 30 µM	> 30 µM					
CCCc1nc(C(C)(C)O)c(C(=O)O)n1Cc1ccc(-c2ccccc2-c2nnn[nH]2)cc1 [OLMESARTAN]	> 30 µM	> 30 µM	> 30 µM	> 30 µM					
COc1ccc(CN(CCN(C)C)c2ccccn2)cc1 [PYRILAMINE]	> 30 µM	> 30 µM	26.4 µM	2.41 µM					
CCOC(=O)[C@H](CCc1ccccc1)N[C@@H](C)C(=O)N(CC(=O)O)C1Cc2ccccc2C1	> 30 µM	> 30 µM	> 30 µM	> 30 µM					
Cc1cc(NC(=O)C2=C(O)c3ccccc3S(=O)(=O)N2C)no1 [ISOXICAM]	> 30 µM	> 30 µM	> 30 µM	> 30 µM					
